Source: patent US6479466B1, “Compositions for treating viral infections, and methods therefor” (University of Maryland, priority 1999, dated 2002)

Tests used:
HTLV-IIIB = test: p24 antigen in infected resting T-lymphocytes exposed to drugs for 6 days before PHA activation; assay type: cell-based, HIV-1
Experimental: The effect of RV and nucleoside analogues in infected resting T-lymphocytes was evaluated in the present example. Purified resting cells were used. Absence of activated lymphocytes in the preparation was determined by incubation of the cells in the presence of a monoclonal antibody directed against the low affinity IL-2 receptor CD25 (Pharmingen, San Diego, Calif.), and subsequent analysis by flow cytometry. […] Cells were infected with HTLV-IIIB at a multiplicity of infection of 10^4 TCID50/10^6 cells for 3 hours. A high multiplicity of infection (m.o.i.) was used because of a reported short half life of HIV-1 unintegrated DNA in infected resting lymphocytes. Infected cells were washed 3 times with PBS to remove virus excess and resuspended in 10% FBS RPMI medium supplemented with drugs. To ensure that any antiviral activity exerted by the drugs occurred during the resting state, drugs were removed six days after infection by washing with PBS 3 times, and cells were activated by culturing in the presence of PHA for 2 days. Cells were then cultured in IL-2 medium without drugs, and supernatants were monitored for the presence of p24 antigen. Cultures were maintained for 20 days.
Purified resting T-lymphocytes from a seronegative donor were infected with HTLV-IIIB at the high multiplicity of infection and cultured in the presence of 5 or 10 μM RV plus ddI (0, 0.25, 0.5 μM), ddC (0, 0.1 μM) or AZT (0, 4 μM) for 6 days. Concentrations used for ddC and AZT correspond to the highest, nontoxic concentration attainable in plasma of treated individuals. […] On day 6 after infection, drugs were washed away and cells were activated with PHA. The extent of viral replication was evaluated on day 6 (prior to PHA activation) and days 14 and 20 after infection. On day 6 very low amounts of p24 antigen could be detected under every condition tested, likely representing residual virus from the infecting inoculum. […] No toxicity was found by the MTT assay in uninfected culture controls treated with 5 μM RV and 0.5 μM ddI for 20 days under the same conditions.

PHA-stimulated PBMCs = test: MTT cell proliferation assay in PHA-stimulated PBMCs; assay type: cell-based, human
Experimental: (§1) The effect of RV and […] on PBMC proliferation at the concentrations shown to enhance the anti-HIV effect of ddI were examined. Cellular proliferation in culture in the presence or absence of drugs was measured by commercial MTT assay, according to the manufacturer's instructions (Boehringer Mannheim). Cell viability was determined by trypan blue staining.
Proliferation was measured on PHA-stimulated PBMCs cultured in the presence of IL-2, 2 μM ddI, and RV or HU. The MTT assay was performed on days 2 and 5 (FIG. 8), and days 2 and 7 (FIG. 20) after the addition of the drugs. […] On day 5, RV at 10 μM inhibited proliferation by 30%, whereas HU inhibited proliferation by 40 to 50%, depending on the donor.
Proliferating PBMCs were cultured in the presence of RV or HU for 5 days. On day 2 and 5 an MTT assay and a ^3H-thymidine incorporation assay were performed. The MTT is a […] assay that measures cellular metabolic activity and directly correlates to the number of cells in the culture. The ^3H-thymidine incorporation assay relies on the incorporation of the radioactive nucleoside ^3H-thymidine into newly synthesized DNA. […] These differences between the effects of RV and HU were even more striking in the MTT and ^3H-thymidine incorporation assays conducted on day 5 (FIG. 12 and FIG. 13, respectively).

PHA-activated PBMCs [1] = test: Cell viability by trypan blue staining in PHA-activated PBMCs; assay type: cell-based, human
Experimental: as §1
In a separate study designed to assess cell viability by trypan blue staining, PHA-activated PBMCs were cultured for 7 days in the presence of IL-2, 2 μM ddI, plus varying concentrations of RV. When RV was used at 25 μM, over 60% of cells became trypan blue stained, therefore indicating cell death. In the absence of RV or when RV was used at 5 or 10 μM, values of more than 95% cell viability were obtained.

PHA-activated PBMCs [2] = test: 3H-thymidine incorporation (DNA synthesis) assay in proliferating PBMCs; assay type: cell-based, human; settings: RV 10 μM; day 2
Experimental: For example, a thymidine incorporation assay using PBMC's may be carried out as follows. PBMC's are suspended, then 0.1 ml (100,000) of cells are added to each designated well of a 96-well plate. The plates are placed into a 37° C., 5% CO2, 95% humid incubator for the predetermined incubation periods—normally 2 and 5 days. At the end of the incubation period, and at a standard time prior to harvesting the plate (6-18 hours), 1.0-1.5 μCi (20 μl of 50-75 mCi/ml in complete medium) of [^3H]-labeled methyl thymidine is added to each well of the assay. The plates are then incubated for the remaining 6-18 hours. At the end of the [^3H]-thymidine pulse, the plates are harvested onto filter paper using a semi-automated multi-well harvester. The filter paper containing bound DNA may be dried using either ethanol or by moderate microwave heating. The filter paper samples are counted in a scintillation counter using standard procedures.

[3] = test system: HIV-174V isolate (L74V mutation in the RT gene); test: p24 antigen in activated PBMCs infected with ddI-resistant isolate 74V; assay type: cell-based, HIV-1
Excerpt: (§2) The present example provides data to test whether viral isolates carrying mutations in the RT gene that confer resistance to ddI could be rendered sensitive when the nucleoside analogue was combined with RV. Viruses containing one or more of the mutations associated with resistance to ddI, e.g., an isolate carrying the L74V mutation which confers primary resistance to ddI, a virus isolate carrying 4 different resistance-associated mutations in the RT gene (HIV-1 RTMDR1) were used to infect PHA-stimulated PBMCs. The HIV-174V isolate, and the HIV-1RTMDR1 isolate (containing the M41L, L74V, V106A and T215Y mutations, conferring resistance to AZT, ddI, nevirapine and other non-nucleotide RT inhibitors) were obtained from Dr. Larder at the National Institutes of Health AIDS Research and Reference Reagent Program (Catalog #2528 and #2529, respectively, Rockville, Md.). In addition, viruses having mutations 65R, 74V, 184V in the RT gene, and a virus containing the multiple-nucleoside-resistance mutation 151M were assayed in infectivity assays using RV plus ddI. The mutations present in the RT gene of each virus as well as their susceptibility to ddI are as follows: HIV-174V(ddIIC90=2.6 μM); HIV-141L, 74V, 106A, 215Y (ddIIC90=4.5 μM); HIV-165R, 74V, 184V (ddIIC90>20 μM) and HIV-162V, 751, 77L, 151M (ddIIC90>20 μM). […]

[4] = test system: HIV-1RTMDR1 isolate (M41L, L74V, V106A and T215Y); test: p24 antigen in activated PBMCs infected with isolate RTMDR1; assay type: cell-based
Excerpt: as §2

HIV-165R, 74V, 184V = test: p24 antigen in activated PBMCs infected with isolate 65R, 74V, 184V; assay type: cell-based, HIV-1; settings: Human immunodeficiency virus 1, PBMC, read-out: ddI IC90
Excerpt: as §2

HIV-162V, 751, 77L, 151M = test: p24 antigen in activated PBMCs infected with isolate 62V, 75I, 77L, 151M; assay type: cell-based, HIV-1; settings: Human immunodeficiency virus 1, PBMC, read-out: ddI IC90
Excerpt: as §2

[5] = Human immunodeficiency virus 1, PBMC, read-out: ddI IC90

| Compound | virus production on days 14 and 20 following PHA activation (HTLV-IIIB; RV alone (5 or 10 μM)) | impact on cell proliferation (PHA-stimulated PBMCs; 5 μM RV, with IL-2 and 2 μM ddI) | OD values in the MTT assay (PHA-stimulated PBMCs; 10 μM RV, day 7, with IL-2 and 2 μM ddI) | MTT values (PHA-stimulated PBMCs; RV 10 μM, day 2, no ddI) | inhibition of proliferation (PHA-stimulated PBMCs; RV 10 μM, day 2, with IL-2 and 2 μM ddI) | inhibition of proliferation (PHA-stimulated PBMCs; RV 10 μM, day 5, with IL-2 and 2 μM ddI) | toxicity to cells (PHA-activated PBMCs [1]; RV 10 μM) | trypan blue stained cells (cell death) (PHA-activated PBMCs [1]; RV 25 μM, 7 days, with IL-2 and 2 μM ddI) | cell viability (PHA-activated PBMCs [1]; RV 5 or 10 μM, 7 days, with IL-2 and 2 μM ddI) | 3H-thymidine incorporation (DNA synthesis) (PHA-activated PBMCs [2]) | virus production (HTLV-IIIB; ddI 1 μM, previous studies under these conditions) | viral replication after PHA activation (HTLV-IIIB; ddI by itself (0.25, 0.5 μM)) | suppression of viral replication ([3]; 2 μM ddI alone) | IC90 [3, 5] | suppression of viral replication ([4]; 2 μM ddI alone) | IC90 [4, 5] | IC90 (HIV-165R, 74V, 184V) | IC90 (HIV-162V, 751, 77L, 151M) |
| --- | --- | --- | --- | --- | --- | --- | --- | --- | --- | --- | --- | --- | --- | --- | --- | --- | --- | --- |
| Oc1ccc(/C=C/c2cc(O)cc(O)c2)cc1 [RV, trans-3, 4′, 5-trihydroxystilbene] | considerable virus production | Minimal impact on cell proliferation | higher than those obtained with 100 μM HU | slightly lower than the untreated control | inhibited proliferation slightly | 30% | not toxic | over 60% | more than 95% | higher amounts of ^3H-thymidine incorporation than the untreated control | – | – | – | – | – | – | – | – |
| OC[C@@H]1CC[C@H](n2cnc3c(O)ncnc32)O1 [ddI, 2′,3′-dideoxyinosine] | – | – | – | – | – | – | – | – | – | – | completely suppress virus production | did not suppress viral replication | 28% | 2.6 µM | 34% | 4.5 µM | > 20 µM | > 20 µM |
